Assay results published in PubChem BioAssay AID1963851 (Molecular Pharmacology Branch, DTP, NCI, 2024).

Tested on: 188146-221-R-J1-PDC complex spheroid viability
Assay: Anticancer human tumor 188146-221-R-J1-PDC patient-derived colon adenocarcinoma cell line growth inhibition [POLQ]
Conditions: for IC50: curve of first compound; for viability, T/C: stronger effect = lower value
How it was run: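 Three-cell-type spheroids modelling solid tumor plus stroma served as the readout system; POL inhibitors were tested individually and in combination, concentration ranges set by clinical Cmax where known.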

[1] = second compound 0.0316 µM, first compound 0.0316 µM
[2] = second compound 0.0316 µM, first compound 0.1 µM
[3] = second compound 0.0316 µM, first compound 0.316 µM
[4] = second compound 0.0316 µM, first compound 1 µM
[5] = second compound 0.0316 µM, first compound 3.16 µM
[6] = second compound 0.0316 µM, first compound 10 µM
[7] = second compound 0.1 µM, first compound 0.0316 µM
[8] = second compound 0.1 µM, first compound 0.1 µM
[9] = second compound 0.1 µM, first compound 0.316 µM
[10] = second compound 0.1 µM, first compound 1 µM
[11] = second compound 0.1 µM, first compound 3.16 µM
[12] = second compound 0.1 µM, first compound 10 µM
[13] = second compound 0.316 µM, first compound 0.0316 µM
[14] = second compound 0.316 µM, first compound 0.1 µM
[15] = second compound 0.316 µM, first compound 0.316 µM
[16] = second compound 0.316 µM, first compound 1 µM
[17] = second compound 0.316 µM, first compound 3.16 µM
[18] = second compound 0.316 µM, first compound 10 µM
[19] = second compound 1 µM, first compound 0.0316 µM
[20] = second compound 1 µM, first compound 0.1 µM
[21] = second compound 1 µM, first compound 0.316 µM
[22] = second compound 1 µM, first compound 1 µM
[23] = second compound 1 µM, first compound 3.16 µM
[24] = second compound 1 µM, first compound 10 µM
[25] = second compound 3.16 µM, first compound 0.0316 µM
[26] = second compound 3.16 µM, first compound 0.1 µM
[27] = second compound 3.16 µM, first compound 0.316 µM
[28] = second compound 3.16 µM, first compound 1 µM
[29] = second compound 3.16 µM, first compound 3.16 µM
[30] = second compound 3.16 µM, first compound 10 µM
[31] = second compound 10 µM, first compound 0.0316 µM
[32] = second compound 10 µM, first compound 0.1 µM
[33] = second compound 10 µM, first compound 0.316 µM
[34] = second compound 10 µM, first compound 1 µM
[35] = second compound 10 µM, first compound 3.16 µM
[36] = second compound 10 µM, first compound 10 µM
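Further: spheroids exposed to compounds for seven days.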
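Wherever viability, T/C is given: 100% = DMSO vehicle control viability.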

## COc1cc(C2c3cc4c(cc3C(OC3OC5COC(C)OC5C(O)C3O)C3COC(=O)C23)OCO4)cc(OC)c1O (stereo unspecified) + COC1C(OC(N)=O)C(O)C(Oc2ccc3c(O)c(NC(=O)c4ccc(O)c(CC=C(C)C)c4)c(=O)oc3c2C)OC1(C)C
Second compound 0.0316 µM
  IC50: 905 nM
Second compound 0.1 µM
  IC50: 911 nM
Second compound 0.316 µM
  IC50: 847 nM
Second compound 1 µM
  IC50: 980 nM
Second compound 3.16 µM
  IC50: 954 nM
Second compound 10 µM
  IC50: 1360 nM
[1]
  viability, T/C: 116%
[2]
  viability, T/C: 103%
[3]
  viability, T/C: 78.1%
[4]
  viability, T/C: 45.9%
[5]
  viability, T/C: 31.3%
[6]
  viability, T/C: 21.4%
[7]
  viability, T/C: 124%
[8]
  viability, T/C: 108%
[9]
  viability, T/C: 79.5%
[10]
  viability, T/C: 50%
[11]
  viability, T/C: 24.8%
[12]
  viability, T/C: 29%
[13]
  viability, T/C: 103%
[14]
  viability, T/C: 111%
[15]
  viability, T/C: 80.4%
[16]
  viability, T/C: 46.5%
[17]
  viability, T/C: 24.7%
[18]
  viability, T/C: 23.4%
[19]
  viability, T/C: 111%
[20]
  viability, T/C: 93.8%
[21]
  viability, T/C: 77.3%
[22]
  viability, T/C: 52.9%
[23]
  viability, T/C: 25.3%
[24]
  viability, T/C: 31.6%
[25]
  viability, T/C: 105%
[26]
  viability, T/C: 103%
[27]
  viability, T/C: 81.9%
[28]
  viability, T/C: 49.7%
[29]
  viability, T/C: 30%
[30]
  viability, T/C: 29.2%
[31]
  viability, T/C: 119%
[32]
  viability, T/C: 103%
[33]
  viability, T/C: 97.3%
[34]
  viability, T/C: 54.1%
[35]
  viability, T/C: 34.7%
[36]
  viability, T/C: 27.4%

## COc1ccc([C@@H](O)c2cc(-c3ncnc4cc(N5CCOCC5)ccc34)c(F)cc2Cl)nn1 + COC1C(OC(N)=O)C(O)C(Oc2ccc3c(O)c(NC(=O)c4ccc(O)c(CC=C(C)C)c4)c(=O)oc3c2C)OC1(C)C
Second compound 0.0316 µM
  IC50: 4190 nM
Second compound 0.1 µM
  IC50: 5770 nM
Second compound 0.316 µM
  IC50: 4270 nM
Second compound 1 µM
  IC50: 5010 nM
Second compound 3.16 µM
  IC50: 5750 nM
Second compound 10 µM
  IC50: 5360 nM
[1]
  viability, T/C: 105%
[2]
  viability, T/C: 95.4%
[3]
  viability, T/C: 81.4%
[4]
  viability, T/C: 76.8%
[5]
  viability, T/C: 61.2%
[6]
  viability, T/C: 27.1%
[7]
  viability, T/C: 92.8%
[8]
  viability, T/C: 89.3%
[9]
  viability, T/C: 96.2%
[10]
  viability, T/C: 84.6%
[11]
  viability, T/C: 65.3%
[12]
  viability, T/C: 36.3%
[13]
  viability, T/C: 107%
[14]
  viability, T/C: 91.3%
[15]
  viability, T/C: 102%
[16]
  viability, T/C: 83.4%
[17]
  viability, T/C: 58.7%
[18]
  viability, T/C: 26.2%
[19]
  viability, T/C: 96%
[20]
  viability, T/C: 96.9%
[21]
  viability, T/C: 97.5%
[22]
  viability, T/C: 83.2%
[23]
  viability, T/C: 65.3%
[24]
  viability, T/C: 28.1%
[25]
  viability, T/C: 108%
[26]
  viability, T/C: 95.8%
[27]
  viability, T/C: 97.8%
[28]
  viability, T/C: 84.3%
[29]
  viability, T/C: 72.1%
[30]
  viability, T/C: 31.4%
[31]
  viability, T/C: 108%
[32]
  viability, T/C: 84.5%
[33]
  viability, T/C: 113%
[34]
  viability, T/C: 63.4%
[35]
  viability, T/C: 75.7%
[36]
  viability, T/C: 30%

## CC1COCCN1c1cc(-c2ccnn2C)c2ccnc(-c3ccn[nH]3)c2n1 (stereo unspecified) + Cc1cccc(N(C)C(=O)C2C(O)CCN2c2nc(C)cc(C(F)(F)F)c2C#N)c1
Second compound 0.0316 µM
  IC50: 203 nM
Second compound 0.1 µM
  IC50: 228 nM
Second compound 0.316 µM
  IC50: 248 nM
Second compound 1 µM
  IC50: 336 nM
Second compound 3.16 µM
  IC50: 232 nM
Second compound 10 µM
  IC50: 165 nM
[1]
  viability, T/C: 86.4%
[2]
  viability, T/C: 63.6%
[3]
  viability, T/C: 43.3%
[4]
  viability, T/C: 21.8%
[5]
  viability, T/C: 21.6%
[6]
  viability, T/C: 17.8%
[7]
  viability, T/C: 87.6%
[8]
  viability, T/C: 72.7%
[9]
  viability, T/C: 39.3%
[10]
  viability, T/C: 26.5%
[11]
  viability, T/C: 17%
[12]
  viability, T/C: 15.7%
[13]
  viability, T/C: 92.9%
[14]
  viability, T/C: 79.8%
[15]
  viability, T/C: 40%
[16]
  viability, T/C: 26.5%
[17]
  viability, T/C: 18.8%
[18]
  viability, T/C: 13.8%
[19]
  viability, T/C: 75.8%
[20]
  viability, T/C: 73.9%
[21]
  viability, T/C: 50.3%
[22]
  viability, T/C: 26.4%
[23]
  viability, T/C: 17.5%
[24]
  viability, T/C: 15.8%
[25]
  viability, T/C: 74.9%
[26]
  viability, T/C: 67.6%
[27]
  viability, T/C: 44%
[28]
  viability, T/C: 20%
[29]
  viability, T/C: 23.3%
[30]
  viability, T/C: 16.6%
[31]
  viability, T/C: 67.9%
[32]
  viability, T/C: 51.5%
[33]
  viability, T/C: 47.8%
[34]
  viability, T/C: 25.1%
[35]
  viability, T/C: 21.3%
[36]
  viability, T/C: 20.2%
